From patent US10253045B2, “Crystalline forms of a therapeutic compound and uses thereof” (Kala Pharmaceuticals, Inc., priority 2014, dated 2019)
≈ marks a conversion by molar mass, not a printed value.

What was measured:
[1] = Thermodynamic aqueous solubility; assay type: physicochemical; conditions: for Equilibrated form in suspension: XRPD of equilibrated solids after the solubility measurement in water, ambient temperature
Protocol: The thermodynamic solubility values of Compound 5 using Crystalline Forms I and II as starting forms were determined in water. In one vial, 10 mg of Crystalline Form I of Compound 5 and 1 mL of water were stirred at ambient temperature for 24 hours at 400 RPM. In a separate vial, 10 mg of Crystalline Form II of Compound 5 was suspended in 1 mL of water, and then the suspension was stirred at ambient temperature for 48 hours at 200 RPM. The equilibrated solids were then separated by dispensing 500 μL of the suspension into a 1.5-mL centrifuge tube, and then centrifuged for 5 minutes at 13,200 RPM using an Eppendorf 5415D centrifuge. As much of the supernatant as possible was decanted using a Pasteur pipette and dispensed into a new 1.5-mL centrifuge tube. The samples were again centrifuged for 5 minutes at 13,200 RPM using the same instrument. The Compound 5 content and pH values of the supernatant were determined by HPLC and pH meter, respectively. The pH of the supernatant was determined to be 9.16.

[2] = Wet milling to nanocrystals: particle size and crystal form stability (XRPD); assay type: physicochemical; conditions: XRPD of milled samples compared with neat form
Protocol: Crystalline Forms of Compound 5 were wet-milled in the presence of stabilizers that enable the preparation of mucus-penetrating particles (MPP) or nanocrystals. The same milling process was employed for all samples. Milling media, specifically 0.5 mL bulk volume of 1-mm ceria-stabilized zirconium oxide beads, was added to a glass vial. Approximately 25 mg of Compound 5 Crystalline Form I or Crystalline Form II and 0.475 mL of milling solution, as specified in each example, were then added to the vial yielding a slurry of 5% Compound 5. A magnetic stir bar was used to agitate the beads, stirring at approximately 500 rpm.
Neat Crystalline Form I of Compound 5 synthesized according to Example 1 was wet-milled in the presence of PLURONIC® F127 (also known as Poloxamer 407) or polyvinyl alcohol with an average MW of 31 kDa and average hydrolysis of 88% (PVA), and a buffer.
Loss of crystallinity and possible form change to amorphous and Crystalline Form II occurred during milling.
Neat Crystalline Form II of Compound 5 prepared in accordance with Example 2 was wet-milled the presence of PLURONIC® F127 (also known as Poloxamer 407) and a buffer.
Approximately 100 μL of Sample A was transferred directly onto the surface of the sample XRPD holder, then was allowed to air dry.

| Compound | Equilibrated form in suspension [1] | Equilibrated form in suspension ([1]; listed as I) | solubility ([1]; water, 22 °C, pH 9.16, water, thermodynamic from solid, ambient temperature (ca. 22° C.), 10 mg in 1 mL stirred 24 h (Form I) or 48 h (Form II), supernatant pH 9.16, HPLC) [µg/mL] | Stability of crystalline form to the milling process ([2]; listed as Crystalline Form I of Compound 5) | Solubility in Water ([1]; water, ambient temperature (ca. 22° C.), 10 mg in 1 mL stirred 24 h (Form I) or 48 h (Form II), supernatant pH 9.16, HPLC) [µg/mL] | Stability of crystalline form to the milling process ([2]; listed as Crystalline Form II of Compound 5) |
| --- | --- | --- | --- | --- | --- | --- |
| Cc1cc(C(=O)Nc2cc(Oc3ccc4nc(NC(=O)CCCN5CCC6(CC5)COC6)cn4n3)ccc2C)n(C)n1 [Crystalline Form I, N-(5-((2-(4-(2-oxa-7-azaspiro[3.5]nonan-7-yl)butanamido)imidazo[1,2-b]pyridazin-6-yl)oxy)-2-methylphenyl)-1,3-dimethyl-1H-pyrazole-5-carboxamide] | converted to amorphous | Amorphous | 27.8 (≈ 48.5 µM) | not stable to the milling process |  |  |
| Cc1cc(C(=O)Nc2cc(Oc3ccc4nc(NC(=O)CCCN5CCC6(CC5)COC6)cn4n3)ccc2C)n(C)n1 [Crystalline Form II, N-(5-((2-(4-(2-oxa-7-azaspiro[3.5]nonan-7-yl)butanamido)imidazo[1,2-b]pyridazin-6-yl)oxy)-2-methylphenyl)-1,3-dimethyl-1H-pyrazole-5-carboxamide] | stable |  |  |  | 15.76 (≈ 27.5 µM) | stable to the milling process |
